From patent US10875837B2, “Inhibitors of the fibroblast growth factor receptor” (BLUEPRINT MEDICINES CORPORATION, priority 2013, dated 2020) come the findings set out here.

Data set [1] has as its system pMAPK (Thr202/Tyr204) in MDA-MB453 or DMS 114 cells. The experiment in a line: Detection of pMAPK (Thr202/Tyr204) using Alpha ELISA (pERK alphaLISA). In kind it is cell-based. The settings on record: 1 hr incubation with compound; cell line not given (MDA-MB453 or DMS 114). The protocol:
Detection of pMAPK (Thr202/Tyr204) Using Alpha ELISA
MDA-MB453 or DMS 114 cells were plated in 96-well cell culture plates at a density of 1×10^5 cells or 3×10^4 cells, respectively. Cells were allowed to attach, and growth media was replaced with serum free media. Compounds were added at the indicated concentrations. Following 1 hr incubation in the presence of compound, cells were collected. For the DMS 114 cells, 100 ng/mL FGF2 was added for 10 min prior to cell collection. Cell lysates were prepared and processed according to manufacturer instruction (AlphaScreen® SureFire™ Phospho-ERK 1/2 Kit (Perkin Elmer).
(In general: An ELISA detects its analyte on a solid surface through an enzyme-linked reagent.)

A further data set relates to Hep3B xenograft tumors. Nature of the data set: Hep3B liver cancer cell subcutaneous xenograft model in nude mice. Format: in vivo. The protocol: The effects of Compound 27 on tumor growth inhibition in Hep3B liver cancer cell subcutaneous xenograft model with different dosages were studied.
Female nude mice (Mus musculus) age 6 to 8 weeks were used. Tumor cell culture and inoculation: Hep3B cells were cultured with EMEM medium (Invitrogen, USA) supplemented with 10% FBS (Gibco, Australia). The cells were harvested in 90% confluence, and the viability was no less than 90%. Mice were implanted subcutaneously (s.c.) with 200 μL of 10×10^6 Hep3B cells in 50% Matrigel in the right flank at the beginning of the study.
Animal grouping and dosing schedule: Ten days after cell implantation, when tumors reached an average volume of 284 mm^3, […] were selected based on tumor volume and randomly assigned to 5 treatment groups (n=9). The day of randomization was denoted as day 0 and the treatment was started from then on.
Tumor volume and body weight measurements: Tumor size was measured twice per week in two dimensions using a caliper, and the volume was expressed in mm^3 using the formula: V=0.5 a× b^2 where a and b were the long and short diameters of the tumor, respectively. Body weight was measured at least twice weekly.

For the next data set, the target named is T1, wild type FGFR-4 (Homo sapiens, UniProt P22455).
T1 construct: purchased Carna Biosciences, Inc
T1 sequence (P22455 22-802): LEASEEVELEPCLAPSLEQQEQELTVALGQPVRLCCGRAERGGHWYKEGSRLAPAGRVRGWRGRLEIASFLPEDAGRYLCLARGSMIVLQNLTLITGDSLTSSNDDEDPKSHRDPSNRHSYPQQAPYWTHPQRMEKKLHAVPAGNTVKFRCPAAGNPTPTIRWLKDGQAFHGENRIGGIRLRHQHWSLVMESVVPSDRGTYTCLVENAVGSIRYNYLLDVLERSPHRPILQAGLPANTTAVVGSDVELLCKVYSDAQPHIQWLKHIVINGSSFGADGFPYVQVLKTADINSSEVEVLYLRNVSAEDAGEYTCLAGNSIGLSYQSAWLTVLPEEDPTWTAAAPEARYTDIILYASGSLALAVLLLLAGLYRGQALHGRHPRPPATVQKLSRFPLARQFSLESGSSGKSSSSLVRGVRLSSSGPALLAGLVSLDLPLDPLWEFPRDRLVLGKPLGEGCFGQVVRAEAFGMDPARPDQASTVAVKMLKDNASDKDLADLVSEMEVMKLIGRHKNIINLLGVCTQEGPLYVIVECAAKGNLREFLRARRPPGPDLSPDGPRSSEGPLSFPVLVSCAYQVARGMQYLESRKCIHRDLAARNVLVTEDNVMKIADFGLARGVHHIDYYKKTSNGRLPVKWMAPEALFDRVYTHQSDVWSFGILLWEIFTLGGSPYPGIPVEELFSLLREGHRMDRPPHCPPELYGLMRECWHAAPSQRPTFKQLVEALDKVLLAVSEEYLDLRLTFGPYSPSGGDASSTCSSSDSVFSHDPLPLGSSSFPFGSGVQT
The experiment in a line: FGFR-4 wild type assay at Km (Caliper electrophoretic mobility shift). In kind it is biochemical. Conditions: wild type FGFR-4, 400 uM ATP, 25 C, 90 minutes; read-out: INH-FGFR4. On the procedure: Biochemical Activity Assessment In order to assess the activity of chemical compounds against the relevant kinase of interest, the Caliper LifeSciences electrophoretic mobility shift technology platform is utilized. Fluorescently labeled substrate peptide is incubated in the presence dosed levels of compounds, a set concentration of kinase and of ATP, so that a reflective proportion of the peptide is phosphorylated. At the end of the reaction, the mix of phosphorylated (product) and non-phosphorylated (substrate) peptides are passed through the microfluidic system of the Caliper LabChip® EZ Reader II, under an applied potential difference. The presence of the phosphate group on the product peptide provides a difference in mass and charge between the product peptide and the substrate peptide, resulting in a separation of the substrate and product pools in the sample. As the pools pass the LEDS within the instrument, these pools are detected and resolved as separate peaks. The ratio between these peaks therefore reflects the activity of the chemical matter at that concentration in that well, under those conditions.
FGFR-4 wild type assay at Km: In each well of a 384-well plate, 0.5 ng/ul of wild type FGFR-4 (Carna Biosciences, Inc.) was incubated in a total of 12.5 ul of buffer (100 mM HEPES pH 7.5, 0.015% Brij 35, 10 mM MgCl2, 1 mM DTT) with 1 uM CSKtide (5-FAM-KKKKEEIYFFFG-NH2) and 400 uM ATP at 25 C for 90 minutes in the presence or absence of a dosed concentration series of compound (1% DMSO final concentration). The reaction was stopped by the addition of 70 ul of Stop buffer (100 mM HEPES pH 7.5, 0.015% Brij 35, 35 mM EDTA and 0.2% of Coating Reagent 3 (Caliper Lifesciences)). The plate was then read on a Caliper LabChip® EZ Reader II (protocol settings: −1.9 psi, upstream voltage −700, downstream voltage −3000, post sample sip 35 s).

Each structure is given as a SMILES string.

As to `C=CC(=O)N[C@H]1COC[C@H]1Nc1ncc2cc(-c3c(Cl)c(OC)cc(OC)c3Cl)ccc2n1` [Compound 27, N-[(3R,4S)-4-{[6-(2,6-dichloro-3,5-dimethoxyphenyl)quinazolin-2-yl]amino}oxolan-3-yl]prop-2-enamide], the IC50 (in data set [1]; at wild type FGFR-4) was below 0.01 µM in each case. Further, in the data set on Hep3B xenograft tumors (100 mg/kg PO BID, Hep3B xenograft, nude mice), the tumor response result was “regressed and almost disappeared”. Moreover, the “tumor volume compared with vehicle group” value in the data set with Hep3B xenograft tumors (30 and 100 mg/kg PO BID, Hep3B xenograft, nude mice) is recorded as “Statistically significant reduction of tumor volumes”. Further, in the data set on Hep3B xenograft tumors (Hep3B-bearing nude mice, only the 100 mg/kg PO BID group did not lose bodyweight), the body weight change result is “could alleviate body weight loss”. In addition, the “tumor volume compared with vehicle group during the entire study” value in the data set on Hep3B xenograft tumors (all treated groups, 10 mg/kg to 100 mg/kg, Hep3B xenograft, nude mice) is recorded as “significant reduction of tumor volume”. Further, the tolerability entry in the data set with Hep3B xenograft tumors (current dosages and dosing schedule (10 to 100 mg/kg PO BID), nude mice) is listed as “well tolerated”. In addition, the “dose dependence of tumor inhibition efficiency” value in the data set on Hep3B xenograft tumors (increasing dosage from 10 mg/kg to 100 mg/kg) is recorded as “enhanced the tumor inhibition efficiency”.

With `C=CC(=O)N[C@H]1CN(S(=O)(=O)CC)C[C@H]1Nc1ncc2cc(-c3c(Cl)c(OC)cc(OC)c3Cl)ccc2n1` [Compound 89], the results for the IC50 (in data set [1]; at wild type FGFR-4) were 0.01 to 0.1 µM and below 0.01 µM, respectively.

For the molecule `C=CC(=O)N[C@H]1CN(C(=O)CN2CCCC2)C[C@H]1Nc1ncc2cc(-c3c(Cl)c(OC)cc(OC)c3Cl)ccc2n1` [Compound 91], the IC50 in data set [1] is 0.01 to 0.1 µM; on wild type FGFR-4, below 0.01 µM.
